Data taken from ChEMBL document CHEMBL3526091, “Pharmacokinetics, metabolism, and excretion of the glycogen synthase kinase-3 inhibitor LY2090314 in rats, dogs, and humans: a case study in rapid clearance by extensive metabolism with low circulating metabolite exposure” (Drug Metab Dispos, 2013).

Assays:
[1] = test system: Blood; experiment: Drug uptake in Sprague-Dawley rat blood at 5 mg/kg, iv administered for 30 mins; format: ADME, organism-based; parameters: dose 5 mg/kg, dosed compound name [14C]LY2090314, route intravenous; settings: in vivo, 0.5 h
[2] = AUC (0 to infinity) in cancer patient at 60 mg for 60 mins treated 1/1 cycle/day; format: ADME, organism-based; parameters: dose 60 mg, time infinity, dosed compound name LY2090314; settings: human, plasma
[3] = test system: Rattus norvegicus; experiment: Drug recovery in Sprague-Dawley rat cage at 5 mg/kg, iv administered for 30 mins during 0 to 168 hrs time interval by radio analysis; format: ADME, organism-based; parameters: dose 5 mg/kg, dosed compound name [14C]LY2090314, route intravenous; settings: in vivo
[4] = Half life in cancer patient at 60 mg for 60 mins treated 1/8 cycle/day; format: ADME, organism-based; parameters: dosed compound name LY2090314; settings: human, in vivo
[5] = Volume of distribution at steady state in Sprague-Dawley rat at 5 mg/kg, iv administered for 30 mins; format: ADME, organism-based; parameters: dose 5 mg/kg, dosed compound name [14C]LY2090314, route intravenous; settings: in vivo, read-out: Vdss
[6] = AUC (0 to infinity) in cancer patient at 40 mg for 60 mins treated 1/1 cycle/day; format: ADME, organism-based; parameters: dose 40 mg, time infinity, dosed compound name LY2090314; settings: human, plasma
[7] = test system: Plasma; experiment: Plasma concentration in beagle dog at Tmax; format: ADME, cell-free, Canis lupus familiaris; parameters: dosed compound name [14C]LY2090314
[8] = test system: Canis familiaris; experiment: AUC (0 to infinity) in beagle dog assessed as total radioactivity at 5 mg/kg, iv administered for 30 mins; format: ADME, organism-based, Canis lupus familiaris, Plasma; parameters: dose 5 mg/kg, dosed compound name [14C]LY2090314, route intravenous, time infinity; settings: in vivo, 0.5 h
[9] = Volume of distribution at steady state in cancer patient at 80 mg for 60 mins treated 1/8 cycle/day; format: ADME, organism-based; parameters: dosed compound name LY2090314; settings: human, in vivo, read-out: Vdss
[10] = Clearance in cancer patient at 120 mg for 60 mins treated 1/1 cycle/day; format: ADME, organism-based; parameters: dosed compound name LY2090314; settings: human, in vivo
[11] = Clearance in cancer patient at 80 mg for 60 mins treated 1/1 cycle/day; format: ADME, organism-based; parameters: dosed compound name LY2090314; settings: human, in vivo
[12] = Cmax in Sprague-Dawley rat at 5 mg/kg, iv administered for 30 mins; format: ADME, organism-based; parameters: dose 5 mg/kg, dosed compound name [14C]LY2090314, route intravenous; settings: in vivo
[13] = Cmax in cancer patient at 80 mg for 60 mins treated 1/1 cycle/day; format: ADME, organism-based; parameters: dose 80 mg, dosed compound name LY2090314; settings: human, in vivo
[14] = Drug recovery in bile duct-cannulated Sprague-Dawley rat urine at 5 mg/kg, iv administered for 30 mins during 0 to 168 hrs time interval by radio analysis; format: ADME, organism-based; parameters: dose 5 mg/kg, dosed compound name [14C]LY2090314, route intravenous; settings: in vivo
[15] = Half life in cancer patient at 120 mg for 60 mins treated 1/1 cycle/day; format: ADME, organism-based; parameters: dosed compound name LY2090314; settings: human, in vivo
[16] = Half life in cancer patient at 80 mg for 60 mins treated 1/1 cycle/day; format: ADME, organism-based; parameters: dosed compound name LY2090314; settings: human, in vivo
[17] = Tmax in cancer patient at 120 mg for 60 mins treated 1/1 cycle/day; format: ADME, organism-based; parameters: dosed compound name LY2090314; settings: human, in vivo
[18] = test system: Canis familiaris; experiment: Total drug recovery in beagle dog at 5 mg/kg, iv administered for 30 mins during 0 to 168 hrs time interval by radio analysis; format: ADME, organism-based, Canis lupus familiaris; parameters: dose 5 mg/kg, dosed compound name [14C]LY2090314, route intravenous; settings: in vivo
[19] = Half life in cancer patient at 40 mg for 60 mins treated 1/1 cycle/day; format: ADME, organism-based; parameters: dosed compound name LY2090314; settings: human, in vivo
[20] = Clearance in beagle dog at 5 mg/kg, iv administered for 30 mins; format: ADME, organism-based, Canis lupus familiaris; parameters: dose 5 mg/kg, dosed compound name [14C]LY2090314, route intravenous; settings: in vivo
[21] = test system: Canis familiaris; experiment: Clearance in beagle dog assessed as total radioactivity at 5 mg/kg, iv administered for 30 mins; format: ADME, organism-based, Canis lupus familiaris; parameters: dose 5 mg/kg, dosed compound name [14C]LY2090314, route intravenous; settings: in vivo, 0.5 h
[22] = Plasma protein binding in cancer patient; format: ADME, cell-free; parameters: dosed compound name LY2090314; settings: human, read-out: PPB (converted)
[23] = Volume of distribution at steady state in cancer patient at 10 mg for 60 mins treated 2/1 cycle/day; format: ADME, organism-based; parameters: dosed compound name LY2090314; settings: human, in vivo, read-out: Vdss
[24] = test system: Plasma; experiment: Drug recovery in beagle dog plasma assessed as radiochemical peak area at 5 mg/kg, iv administered for 30 mins after 0.5 hrs by radio analysis; format: ADME, organism-based, Canis lupus familiaris; parameters: dose 5 mg/kg, dosed compound name [14C]LY2090314, route intravenous; settings: in vivo
[25] = Tmax in cancer patient at 120 mg for 60 mins treated 1/8 cycle/day; format: ADME, organism-based; parameters: dosed compound name LY2090314; settings: human, in vivo
[26] = Volume of distribution at steady state in cancer patient at 120 mg for 60 mins treated 1/8 cycle/day; format: ADME, organism-based; parameters: dosed compound name LY2090314; settings: human, in vivo, read-out: Vdss

Work on `O=C1NC(=O)C(c2cnc3ccccn23)=C1c1cn2c3c(cc(F)cc13)CN(C(=O)N1CCCCC1)CC2` [LY-2090314] yielded a Compound recovery [1] of 83.4%, an AUC(0-inf) [2] of 1600 ng·h/mL and a Radiolabel recovery [3] of 0.14%. It also gave a half-life [4] of 3.35 h, a Vd [5] of 1.19 L/kg and an AUC(0-inf) [6] of 976 ng·h/mL. It also gave a Compound recovery [7] of 82.8%, an AUC [8] of 15067 ng·h/mL and a Vd [9] of 66 L. It also gave a clearance [10] of 605 mL/min, a clearance [11] of 747 mL/min and a Cmax [12] of 1680 ng/mL. It also gave a Cmax [13] of 898 ng/mL, a Radiolabel recovery [14] of 1.94% and a half-life [15] of 2.97 h. The half-life [16] was 2.57 h, the Tmax [17] was 0.98 h and the Radiolabel recovery [18] was 93%. For the same compound, the half-life [19] was 3.15 h, the clearance [20] was 27.9 mL/min/kg and the CL [21] was 5.62 mL/min/kg. The fraction unbound [22] was 0.03, the Vd [23] was 101 L and the Radiolabel recovery [24] was 82.76%. For the same compound, the Tmax [25] was 0.5 h and the Vd [26] was 143 L.
